{
  "source": "paper PMC4877593",
  "about": "“Design and Synthesis of Potent in Vitro and in Vivo Anticancer Agents Based on 1-(3′,4′,5′-Trimethoxyphenyl)-2-Aryl-1H-Imidazole” (Scientific Reports, 2016)",
  "key": {"A549": {"test_system": "A549", "assay": "In vitro antiproliferative activity (MTT), A549", "format": "cell-based", "settings": "Homo sapiens, tumor cell proliferation, 72 h, mean ± SE", "description": "(§1) Human T-cell leukemia (CCRF-CEM and Jurkat) and human B-cell leukemia (SEM) cells were grown in RPMI-1640 medium (Gibco, Milano, Italy). Breast adenocarcinoma (MCF7), human cervix carcinoma (HeLa), and human colon adenocarcinoma (HT-29) cells were grown in DMEM medium (Gibco, Milano, Italy), all supplemented with 115 units/mL penicillin G (Gibco, Milano, Italy), 115 μg/mL streptomycin (Invitrogen, Milano, Italy), and 10% fetal bovine serum (Invitrogen, Milano, Italy). Stock solutions (10 mM) of the different compounds were obtained by dissolving them in dimethyl sulfoxide (DMSO). Individual wells of a 96-well tissue culture microtiter plate were inoculated with 100 μL of complete medium containing 8 × 10^3 cells. The plates were incubated at 37 °C in a humidified 5% CO2 incubator for 18 h prior to the experiments. After medium removal, 100 μL of fresh medium containing the test compound at different concentrations was added to each well in triplicate and incubated at 37 °C for 72 h. The percentage of DMSO in the medium never exceeded 0.25%. This was also the maximum DMSO concentration in all cell-based assays described below. […] Different concentrations of the test compounds were added, and viability was determined 72 h later by the MTT test. For cytotoxicity evaluations in resting PBL cultures, non-adherent cells were resuspended (5 × 10^5 cells/mL) and treated for 72 h with the test compounds, as described above."}, "Jurkat [1]": {"test_system": "Jurkat", "assay": "Mitochondrial membrane potential (JC-1), Jurkat", "format": "cell-based, human", "settings": "Jurkat, 50, 100 and 250 nM; time- and concentration-dependent", "description": "Mitochondria play an essential role in the propagation of apoptosis. It is well established that, at an early stage, apoptotic stimuli alter the mitochondrial transmembrane potential (Δψmt). Δψmt was monitored by the fluorescence of the dye JC-1. […] This occurred in a time- and concentration-dependent fashion, and, in both cell lines, a significant increase was observed after a 6 h treatment. The disruption of Δψmt is associated with the appearance of annexin-V positivity in the treated cells when they are in an early apoptotic stage. […] Cells were treated with the indicated concentration of compound for 24 or 48 h and then stained with the fluorescent probe JC-1 for analysis of mitochondrial potential or H2-DCFDA for the evaluation of ROS levels. Cells were then analyzed by flow cytometry as described in the experimental section."}, "Jurkat [2]": {"test_system": "Jurkat", "assay": "In vitro antiproliferative activity (MTT), Jurkat", "format": "cell-based", "settings": "Homo sapiens, tumor cell proliferation, 72 h, mean ± SE", "description": "as §1"}, "PBL stimulated with PHA": {"test_system": "PBL stimulated with PHA", "assay": "Cytotoxicity in PHA-stimulated peripheral blood lymphocytes", "format": "cell-based, human", "settings": "72 h, PBL from healthy donors, MTT, read-out: IC50 PBLPHA", "description": "(§2) This value was almost 600 times higher than that observed against the Jurkat lymphoblastic cell line.\nas §1, with “For cytotoxicity evaluations in resting PBL cultures, non-adherent cells were resuspended (5 × 10^5 cells/mL) and treated for 72 h with the test compounds, as described above.” left out"}, "HL-60": {"test_system": "HL-60", "assay": "In vitro antiproliferative activity (MTT), HL-60", "format": "cell-based", "settings": "Homo sapiens, tumor cell proliferation, 72 h, mean ± SE"}, "[3]": {"test_system": "BL6-B16 mouse melanoma cell line", "assay": "Mouse allograft (syngeneic) tumor model", "format": "in vivo", "settings": "for reduction of tumor mass: doses on days 9, 11 and 14, C57BL/6 mice", "description": "[…] As reference compound, CA-4P (1b) was used at 30 mg/kg. The BL6-B16 mouse melanoma cell line, injected subcutaneously in syngeneic C57/BL6 mice, is able to proliferate and generate tumor masses.\nFigure 9 Inhibition of mouse allograft growth in vivo by compound 4o. Male C57BL/6 mice were injected subcutaneously at their dorsal region with […] BL6-B16 murine melanoma cells. […] Injections were given intraperitoneally at the days indicated by the arrows. Data are presented as mean ± SEM of tumor volume at each time point for 5 animals per group. *p < 0.05, **p < 0.01 ***p < 0.001 vs. control.\nSix week old C57BL/6 mice (Charles River, Calco) were injected subcutaneously into the dorsolateral flank with 2.5 × 10^5 BL6-B16 murine melanoma cells in 200 μL-total volume of PBS. When tumors were palpable, animals were treated intraperitoneally every other day with different doses of test compounds dissolved in 50 μL of DMSO. Tumors were measured in two dimensions, and tumor volume was calculated according to the formula V = (D × d^2)/2, where D and d are the major and minor perpendicular tumor diameters, respectively."}, "[4]": {"test_system": "PBL not stimulated with PHA", "assay": "Cytotoxicity in resting peripheral blood lymphocytes", "format": "cell-based", "settings": "Homo sapiens, Lymphocyte, PBL from healthy donors, 72 h, MTT, read-out: IC50 PBLresting", "description": "as §2\nas §1, with “For cytotoxicity evaluations in resting PBL cultures, non-adherent cells were resuspended (5 × 10^5 cells/mL) and treated for 72 h with the test compounds, as described above.” left out"}, "bovine brain tubulin": {"test_system": "bovine brain tubulin", "assay": "Inhibition of tubulin polymerization (turbidimetry)", "format": "biochemical", "description": "To evaluate the effect of the compounds on tubulin assembly in vitro[22], varying concentrations of compounds were preincubated with 10 μM bovine brain tubulin in glutamate buffer at 30 °C and then cooled to 0 °C. After addition of 0.4 mM GTP (final concentration), the mixtures were transferred to 0 °C cuvettes in a recording spectrophotometer equipped with an electronic temperature controller and warmed to 30 °C. Tubulin assembly was followed turbidimetrically at 350 nm. […] The ability of the test compounds to inhibit colchicine binding to tubulin was measured as described, except that the reaction mixtures contained 1 μM tubulin, 5 μM [^3H]colchicine and 1 or 5 μM test compound."}, "HeLa [5]": {"test_system": "HeLa", "assay": "ROS production (H2-DCFDA), HeLa", "format": "cell-based, human", "settings": "in comparison with control cells", "description": "Figure 7 Assessment of mitochondrial membrane potential (Δψmt) and production of ROS after treatment of HeLa (Panels A,B) or Jurkat (Panels C,D) cells with compound 4o. Cells were treated with the indicated concentration of compound for 24 or 48 h and then stained with the fluorescent probe JC-1 for analysis of mitochondrial potential or H2-DCFDA for the evaluation of ROS levels. Cells were then analyzed by flow cytometry as described in the experimental section.\nIt is also well known that dissipation of mitochondrial potential is associated with mitochondrial production of ROS[38]. Superoxide anion is produced by mitochondria due to a shift from the normal 4-electron reduction of O2 to a 1-electron reduction when cytochrome c is released from mitochondria upon apoptosis. Therefore, we investigated whether ROS production increased after treatment with compound 4o. We utilized the dye 2,7-dichlorodihydrofluorescein diacetate (H2-DCFDA), which is oxidized to the fluorescent compound dichlorofluorescein (DCF) upon ROS induction."}, "HeLa [6]": {"test_system": "HeLa", "assay": "Annexin-V/PI apoptosis assay, HeLa", "format": "cell-based, human", "settings": "24 h, lowest concentration used (50 nM)", "description": "To evaluate the induction of apoptosis by compound 4o in two cell lines (HeLa and Jurkat), we used an annexin-V/PI assay. Dual staining for annexin-V and with PI permits discrimination between live cells (annexin-V^−/PI^−), early apoptotic cells (annexin-V^+/PI^−), late apoptotic cells (annexin-V^+/PI^+) and necrotic cells (annexin-V^−/PI^+).\nCell death was determined by flow cytometry of cells double stained with annexin V/FITC and PI. The Coulter Cytomics FC500 (Beckman Coulter) was used to measure the surface exposure of phosphatidyl serine on apoptotic cells according to the manufacturer’s instructions (Annexin-V Fluos, Roche Diagnostics)."}, "[7]": {"settings": "highest dose (7.5 mg/kg i.p.), mice, data not shown"}},
  "note": "Like-named read-outs stand apart in the source and are kept apart here.",
  "data": [
    {"smiles": "CCOc1ccc(-c2nccn2-c2cc(OC)c(OC)c(OC)c2)cc1Cl", "note": "[Compound 4o, 2-(3′-Chloro-4′-ethoxyphenyl)-1-(3′,4′,5′-trimethoxyphenyl)-1H-imidazole]", "values": [
      {"measurement": "IC50", "setting": "A549", "value": "0.57 ± 0.17", "unit": "nM"},
      {"measurement": "percentage of cells with low Δψmt (JC-1)", "setting": "Jurkat [1]", "value": "remarkable increase"},
      {"measurement": "IC50", "setting": "Jurkat [2]", "value": "0.9 ± 0.2", "unit": "nM"},
      {"measurement": "IC50", "setting": "PBL stimulated with PHA; Homo sapiens, Lymphocyte", "value": "~500", "unit": "nM"},
      {"measurement": "IC50", "setting": "PBL stimulated with PHA", "value": "520 ± 40", "unit": "nM"},
      {"measurement": "IC50", "setting": "HL-60", "value": "1.8 ± 0.6", "unit": "nM"},
      {"measurement": "reduction of tumor mass", "setting": "[3]; 1 mg/kg i.p.", "value": 26.0, "unit": "%"},
      {"measurement": "reduction of tumor mass", "setting": "[3]; 3.5 mg/kg i.p.", "value": 32.2, "unit": "%"},
      {"measurement": "reduction of tumor mass", "setting": "[3]; 7.5 mg/kg i.p.", "value": 45.8, "unit": "%"},
      {"measurement": "animal body weight", "setting": "[3]; [7]", "value": "did not cause a decrease in animal body weight"},
      {"measurement": "signs of toxicity", "setting": "[3]; [7]", "value": "did not present any sign of toxicity"},
      {"measurement": "IC50", "setting": "[4]", "value": "> 10000", "unit": "nM"},
      {"measurement": "IC50", "setting": "bovine brain tubulin; repeated beside the calculated energies, read-out: inhibition of tubulin polymerization IC50 (Table 4)", "value": 870, "unit": "nM"},
      {"measurement": "IC50", "setting": "bovine brain tubulin; tubulin at 10 μM, 20 min incubation, read-out: Tubulin assembly IC50 ± S.D.", "value": 870, "unit": "nM"},
      {"measurement": "ROS production (H2-DCFDA)", "setting": "HeLa [5]", "value": "induced the production of large amounts of ROS"},
      {"measurement": "annexin-V positive cells", "setting": "HeLa [6]", "value": "significant accumulation of annexin-V positive cells"}
    ]}
  ]
}
